Legend:
[1] = target: 5-hydroxytryptamine receptor 2B (Homo sapiens, UniProt P41595)
D(1A) dopamine receptor = D(1A) dopamine receptor (Homo sapiens, UniProt P21728)
[2] = target: T1, 5-hydroxytryptamine receptor 1A (Homo sapiens, UniProt P08908)
T1 sequence (P08908 whole entry): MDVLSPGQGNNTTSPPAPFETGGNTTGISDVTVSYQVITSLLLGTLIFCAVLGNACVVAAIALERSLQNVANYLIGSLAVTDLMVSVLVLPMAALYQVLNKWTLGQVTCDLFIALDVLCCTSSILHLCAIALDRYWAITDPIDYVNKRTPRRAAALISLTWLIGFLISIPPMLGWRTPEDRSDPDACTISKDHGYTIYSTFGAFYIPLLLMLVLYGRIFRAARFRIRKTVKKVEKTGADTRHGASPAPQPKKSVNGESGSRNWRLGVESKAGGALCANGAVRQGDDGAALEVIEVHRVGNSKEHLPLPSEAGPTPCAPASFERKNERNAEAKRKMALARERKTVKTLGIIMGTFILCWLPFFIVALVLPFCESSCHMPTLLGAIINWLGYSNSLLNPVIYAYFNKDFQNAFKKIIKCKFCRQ

[3] = target: T2, Retinoic acid receptor beta (Homo sapiens, UniProt P10826); assay type: functional, cell-based
T2 sequence (P10826 whole entry): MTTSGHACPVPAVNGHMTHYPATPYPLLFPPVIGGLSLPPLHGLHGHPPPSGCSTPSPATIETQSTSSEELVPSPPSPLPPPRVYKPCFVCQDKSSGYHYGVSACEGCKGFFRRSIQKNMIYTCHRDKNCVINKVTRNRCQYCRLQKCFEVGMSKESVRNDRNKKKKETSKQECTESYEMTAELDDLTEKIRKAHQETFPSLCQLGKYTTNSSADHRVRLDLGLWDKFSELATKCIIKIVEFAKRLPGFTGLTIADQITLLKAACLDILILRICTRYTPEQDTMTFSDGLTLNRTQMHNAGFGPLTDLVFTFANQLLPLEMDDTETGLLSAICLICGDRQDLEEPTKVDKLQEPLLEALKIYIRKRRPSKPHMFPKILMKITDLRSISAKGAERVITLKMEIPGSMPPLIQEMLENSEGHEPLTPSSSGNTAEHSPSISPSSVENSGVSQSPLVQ

[4] = target: T3, Oxysterols receptor LXR-alpha (Homo sapiens, UniProt Q13133); assay type: functional
T3 sequence (Q13133 whole entry): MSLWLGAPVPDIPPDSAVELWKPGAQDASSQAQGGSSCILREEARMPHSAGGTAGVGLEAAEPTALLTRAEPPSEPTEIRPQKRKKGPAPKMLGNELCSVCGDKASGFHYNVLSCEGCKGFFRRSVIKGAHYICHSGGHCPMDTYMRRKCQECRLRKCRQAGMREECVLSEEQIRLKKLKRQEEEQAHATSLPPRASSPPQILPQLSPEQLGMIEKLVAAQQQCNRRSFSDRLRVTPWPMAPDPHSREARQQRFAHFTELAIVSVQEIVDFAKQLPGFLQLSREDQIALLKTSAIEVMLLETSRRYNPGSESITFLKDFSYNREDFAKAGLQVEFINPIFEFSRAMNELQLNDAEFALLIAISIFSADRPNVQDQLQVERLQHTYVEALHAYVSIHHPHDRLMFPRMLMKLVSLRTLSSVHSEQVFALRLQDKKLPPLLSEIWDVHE

[5] = target: T4, Oxysterols receptor LXR-beta (Homo sapiens, UniProt P55055); assay type: functional
T4 sequence (P55055 whole entry): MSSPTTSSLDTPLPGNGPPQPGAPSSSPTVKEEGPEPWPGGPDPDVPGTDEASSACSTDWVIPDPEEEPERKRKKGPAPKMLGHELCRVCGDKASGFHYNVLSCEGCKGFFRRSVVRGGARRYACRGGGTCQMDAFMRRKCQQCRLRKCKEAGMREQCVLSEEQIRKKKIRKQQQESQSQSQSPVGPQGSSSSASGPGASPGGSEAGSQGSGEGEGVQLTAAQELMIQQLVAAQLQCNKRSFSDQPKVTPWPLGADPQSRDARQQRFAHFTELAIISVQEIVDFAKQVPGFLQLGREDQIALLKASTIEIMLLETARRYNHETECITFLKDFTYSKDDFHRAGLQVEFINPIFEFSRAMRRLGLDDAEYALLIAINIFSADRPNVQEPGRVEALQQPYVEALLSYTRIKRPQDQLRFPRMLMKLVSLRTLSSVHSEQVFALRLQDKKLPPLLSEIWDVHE

[6] = target: T4, Oxysterols receptor LXR-beta; assay type: functional; remark: listed apart in the source
Bile acid receptor [7] = target: T5, Bile acid receptor (Homo sapiens, UniProt Q96RI1); assay type: functional
T5 sequence (Q96RI1 whole entry): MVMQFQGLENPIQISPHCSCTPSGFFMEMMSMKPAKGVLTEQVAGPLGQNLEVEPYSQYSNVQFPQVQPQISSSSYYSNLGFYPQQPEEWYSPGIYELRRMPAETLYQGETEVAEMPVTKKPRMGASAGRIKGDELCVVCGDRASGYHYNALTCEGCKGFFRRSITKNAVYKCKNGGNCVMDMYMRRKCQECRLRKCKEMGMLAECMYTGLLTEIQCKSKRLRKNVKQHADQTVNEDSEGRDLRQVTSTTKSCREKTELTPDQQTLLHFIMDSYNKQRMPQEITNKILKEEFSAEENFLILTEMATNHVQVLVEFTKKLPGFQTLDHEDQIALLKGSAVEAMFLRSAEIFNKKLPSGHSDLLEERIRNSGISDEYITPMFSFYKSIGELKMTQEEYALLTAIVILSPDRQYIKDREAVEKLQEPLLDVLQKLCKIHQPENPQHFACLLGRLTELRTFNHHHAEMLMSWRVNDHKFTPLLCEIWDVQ

Bile acid receptor [8] = target: T5, Bile acid receptor; assay type: functional; remark: listed apart in the source
Further: assay procedure not described here.

Sequence of D(1A) dopamine receptor (P21728 whole entry): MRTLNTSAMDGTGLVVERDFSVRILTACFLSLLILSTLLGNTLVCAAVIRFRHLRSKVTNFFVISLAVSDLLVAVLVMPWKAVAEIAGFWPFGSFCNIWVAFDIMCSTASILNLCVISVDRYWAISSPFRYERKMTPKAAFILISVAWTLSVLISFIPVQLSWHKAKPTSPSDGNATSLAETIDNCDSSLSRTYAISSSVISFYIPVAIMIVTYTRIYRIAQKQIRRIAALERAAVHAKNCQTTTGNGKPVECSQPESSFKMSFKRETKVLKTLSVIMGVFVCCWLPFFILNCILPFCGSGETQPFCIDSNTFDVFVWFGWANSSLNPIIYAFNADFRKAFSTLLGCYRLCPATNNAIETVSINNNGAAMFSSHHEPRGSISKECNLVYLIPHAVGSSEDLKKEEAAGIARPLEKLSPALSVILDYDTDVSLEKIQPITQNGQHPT
Sequence of 5-hydroxytryptamine receptor 2B (P41595 whole entry): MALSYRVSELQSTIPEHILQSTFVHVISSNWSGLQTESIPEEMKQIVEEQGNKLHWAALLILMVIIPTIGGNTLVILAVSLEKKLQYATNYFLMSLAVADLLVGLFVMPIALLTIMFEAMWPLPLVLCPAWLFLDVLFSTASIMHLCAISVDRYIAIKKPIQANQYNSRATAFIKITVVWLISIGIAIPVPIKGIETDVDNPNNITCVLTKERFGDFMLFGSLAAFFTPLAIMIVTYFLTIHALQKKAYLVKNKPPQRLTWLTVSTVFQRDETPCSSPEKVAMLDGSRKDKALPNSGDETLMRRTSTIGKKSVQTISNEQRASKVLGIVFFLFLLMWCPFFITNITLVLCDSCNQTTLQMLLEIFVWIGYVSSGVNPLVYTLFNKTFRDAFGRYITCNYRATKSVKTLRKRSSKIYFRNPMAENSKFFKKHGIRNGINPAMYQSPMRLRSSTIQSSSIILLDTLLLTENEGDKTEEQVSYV

SMILES: CCCN1C[C@H](CSC)C[C@@H]2c3cccc4[nH]cc(c34)C[C@H]21 [PERGOLIDE]
- AC50 [1]: 0.0084 µM

SMILES: Cc1cn([C@H]2C=C[C@@H](CO)O2)c(=O)[nH]c1=O [STAVUDINE]
- AC50 (D(1A) dopamine receptor): > 30 µM
- AC50 [2]: > 30 µM

SMILES: CN1C(C(=O)Nc2ccccn2)=C(O)c2sc(Cl)cc2S1(=O)=O [LORNOXICAM]
- AC50 [3]: > 30 µM
- AC50 [4]: > 30 µM
- AC50 [5]: > 30 µM
- AC50 [6]: > 30 µM
- AC50 (Bile acid receptor [7]): > 30 µM
- AC50 (Bile acid receptor [8]): > 30 µM

SMILES: Cc1c(C(=O)NN2CCCCC2)nn(-c2ccc(Cl)cc2Cl)c1-c1ccc(Cl)cc1 [RIMONABANT]
- AC50 [3]: > 30 µM
- AC50 [4]: > 30 µM
- AC50 [5]: > 30 µM
- AC50 [6]: > 30 µM
- AC50 (Bile acid receptor [7]): 14 µM
- AC50 (Bile acid receptor [8]): > 30 µM

SMILES: O=C(OCC(O)CO)c1ccccc1Nc1ccnc2cc(Cl)ccc12 (configuration not stated) [GLAFENINE]
- AC50 (D(1A) dopamine receptor): > 30 µM
- AC50 [2]: > 30 µM
